The structures appear in SMILES notation. Values joined by “and” are separate entries in the source; they are usually repeats but may differ in a detail not shown here. Equal values may be shown once.

A short description of series [1]: PET imaging with ^64Cu-labeled tetrazine radioligands in healthy mice. The series is classed as in vivo, athymic nude mice. The protocol: All PET imaging experiments were performed on an Inveon PET/CT scanner (Siemens Healthcare Global). Healthy female athymic nude mice (n=4 per radioligand) were administered ^64Cu-Tz-NOTA, ^64Cu-Tz-PEG7-NOTA, or ^64Cu-Tz-SarAr (300-350 μCi in 200 μL 0.9% sterile saline) via intravenous tail vein injection (t=0). Approximately 5 minutes prior to the PET images, mice were anesthetized by inhalation of 2% isoflurane (Baxter Healthcare, Deerfield, Ill.)/oxygen gas mixture and placed on the scanner bed; anesthesia was maintained using 1% isoflurane/gas mixture. Static scans were recorded at various time points after injection with a minimum of 30 million coincident events (10-30 min total scan time). An energy window of 350-700 keV and a coincidence timing window of 6 ns were used. Data were sorted into 2-dimensional histograms by Fourier re-binning, and the images were reconstructed using a two-dimensional ordered subset expectation maximization (2DOSEM) algorithm (16 subsets, 4 iterations) into a 128×128×159 (0.78×0.78×0.80 mm) matrix. The image data was normalized to correct for non-uniformity of response of the PET, dead-time count losses, positron branching ratio, and physical decay to the time of injection but no attenuation, scatter, or partial-volume averaging correction was applied. Activity concentrations (percentage of dose per gram of tissue [% ID/g]) and maximum intensity projections were determined by conversion of the counting rates from the reconstructed images. All of the resulting PET images were analyzed using ASIPro VM™ software.

Series [2] can be described thus: Partition coefficient (log D), 1-octanol / PBS. The series is classed as physicochemical. To be noted: 1-octanol / PBS (pH 7.4). How it is done: Once the precursors were made, the tetrazine constructs were then radiolabeled via incubation with [^64Cu]—CuCl2 for 10 minutes at room temperature in 200 mM NH4OAc, pH 5.0 and purified via reverse-phase C18 HPLC (tR=8.7 min for ^64Cu-Tz-SarAr and 9.7 min for ^64Cu-Tz-PEG7NOTA; FIGS. 6-9). In both cases, the identity of the radiolabeled product was confirmed via co-injection of unlabeled ^natCu-Tz-SarAr and ^natCu-Tz-PEG7-NOTA standards. Ultimately, ^64Cu-Tz-PEG7NOTA was prepared in greater than 99% radionuclidic purity, 78±6% decay-corrected isolated yield, and a specific activity of 323±37 mCi/μmol (n=6). Similarly, ^64Cu-Tz-SarAr was synthesized in greater than 99% radionuclidic purity, 79±7% decay-corrected isolated yield, and a specific activity of 310±36 mCi/μmol (n=6). The ^64Cu-Tz-NOTA radioligand was synthesized, radiolabeled, and purified as previously reported by Zeflis et al. J. Nucl. Med. 2013, 54, 1389-1396, which is hereby incorporated by reference in its entirety. In order to probe the influence of the structural changes on solubility, the partition coefficients of the various radioligands were determined using PBS (pH 7.4) and 1-octanol (Table 1). […] For example, the replacement of NOTA with SarAr rendered ^64Cu-Tz-SarAr (log D=−2.08±0.06) more hydrophobic than ^64Cu-Tz-NOTA (log D=−2.54±0.1).
^64Cu-Tz-PEG7-NOTA, ^64Cu-Tz-NOTA, or ^64Cu-Tz-SarAr (1 μCi) was added to a mixture of 3 mL PBS (pH 7.4) and 3 mL 1-octanol. The resulting mixture was then vortexed thoroughly for 10 minutes and subsequently centrifuged at 1,000 rpm for 10 min. 1 mL of each layer (PBS and 1-octanol) was then collected, and the amount of radioactivity in each sample was counted on a gamma counter calibrated for ^64Cu. The partition coefficient (log D) was calculated using the formula: Log D=log10[(countsoctanol)/(countsPBS] All experiments were performed in triplicate. Reaction of ^64Cu-Tz Radioligands with huA33-TCO

The nature of series [3]: Dosimetry calculations (OLINDA) for huA33-based PET imaging strategies. The following applies: pretargeting. Also noted: species or system human (70-kg Standard Man model, from mouse biodistribution). The protocol: The radiation dosimetry of ^64Cu-Tz-SarAr was performed to ensure the selective delivery of radioisotopes to malignant tissues at radiation doses below the doses of traditional radioimmunoconjugates. To this end, dosimetry calculations were performed using the biodistribution data collected and the OLINDA computer program to determine the mean organ absorbed doses (rad/mCi) and effective dose (rem/mCi) for each strategy (Table 23). The total effective dose of the ^64Cu-Tz-SarAr pretargeting strategy with a 24 h interval period was 0.041 rem/mCi, a slight reduction compared to the 0.046 rem/mCi effective dose created by ^64Cu-Tz-NOTA. This difference was due to the significant reduction in the mean organ absorbed dose to the large intestine. Moreover, the total effective dose of the ^64Cu-Tz-SarAr pretargeting strategy was inversely proportional to the duration of the accumulation interval. For example, the effective dose decreased from 0.041 rem/mCi with a 24 h interval to 0.038 rem/mCi with a 48 h interval to 0.034 with a 120 h interval.
Mouse biodistribution data were expressed as normal-organ mean standard uptake values (SUVs) versus time post-administration. In first order, that SUVs were independent of body mass and thus the same among species, the mean SUV in mouse organ i, SUVOrgan i|Mouse, was converted to the fraction of the injected dose in each human organ I, FIDOrgan I|Human, using the following formula:
[formula] and the organ and total-body masses of the 70-kg Standard Man anatomic model. […] The cumulated activity, or residence time, in human organ i, μCi, in μCi h/μCi, was then calculated by analytically integrating the time-activity function in organ i, replacing the biological clearance constant, (λbλj, for each component j of the fitted exponential function with the corresponding effective clearance constant, (λeλj=(λbλj+λp, where λp is the physical decay constant of the radionuclide. The resulting organ residence times were entered into the OLINDA computer program to yield the mean organ absorbed doses and effective dose in rad/mCi and rem/mCi, respectively. Statistical Analysis

A word on the Log D: it is lipophilicity at a set pH, counting ionised and neutral species. Low readings indicate a more hydrophilic compound, high ones a more lipophilic compound. Turning to `O=C(O)CN1CCN(CC(=O)O)CC(Cc2ccc(NC(=S)NCCOCCOCCOCCOCCOCCOCCOCCNC(=O)CCCC(=O)NCc3ccc(-c4nncnn4)cc3)cc2)N(CC(=O)O)CC1.[64Cu]` (centres unmarked) [^64Cu-Tz-PEG7-NOTA], the “excretion pathway (PET imaging)” value in series [1] is “excretion through both the intestines and the kidneys”. For the same molecule, the “Log D” value in series [2] was −2.44±0.08 and −2.44 +/− 0.08.

`NC12CNCCNCC(NCc3ccc(CNC(=O)CCCC(=O)NCc4ccc(-c5nncnn5)cc4)cc3)(CNCCNC1)CNCCNC2.[64Cu+2]` [^64Cu-Tz-SarAr]: in series [3] (24 h interval), the Brain absorbed dose was 0.0361 rad/mCi; the Breasts absorbed dose is given as 0.0323 rad/mCi; the “Effective Dose” value was 0.041 rem/mCi and 0.0414 rem/mCi; the “Heart Wall absorbed dose” value was 0.0427 rad/mCi. In series [3] (24 h interval), the Kidneys absorbed dose was 0.0661 rad/mCi, the “Lower Lg. Int. Wall absorbed dose” value is reported as 0.0482 rad/mCi, the “Osteogenic Cells absorbed dose” value is given as 0.0893 rad/mCi and the Ovaries absorbed dose is 0.0401 rad/mCi. In series [3] (24 h interval), the Pancreas absorbed dose was 0.0395 rad/mCi, the Skin absorbed dose was 0.0297 rad/mCi, the “Small Intestine absorbed dose” value was 0.0418 rad/mCi and the Spleen absorbed dose was 0.0370 rad/mCi. Further, in series [3] (24 h interval), the “Stomach Wall absorbed dose” value is 0.0552 rad/mCi, the Testes absorbed dose was 0.0345 rad/mCi, the Thymus absorbed dose is 0.0349 rad/mCi and the “Upper Lg. Int. Wall absorbed dose” value was 0.0409 rad/mCi. Also, in series [3] (24 h interval), the Uterus absorbed dose is recorded as 0.0410 rad/mCi. Also, in series [3] (48 h interval), the “Effective Dose” value is 0.038 rem/mCi and 0.0377 rem/mCi; the Kidneys absorbed dose is recorded as 0.0539 rad/mCi; the Pancreas absorbed dose is reported as 0.0364 rad/mCi; the Spleen absorbed dose was 0.0205 rad/mCi. In series [3] (48 h interval), the “Stomach Wall absorbed dose” value was 0.0422 rad/mCi and the Uterus absorbed dose is reported as 0.0383 rad/mCi. Moreover, in series [3] (120 h interval), the “Effective Dose” value is 0.034 rem/mCi and 0.0341 rem/mCi; the “Heart Wall absorbed dose” value is 0.0330 rad/mCi; the Kidneys absorbed dose is recorded as 0.0566 rad/mCi; the Lungs absorbed dose is reported as 0.0216 rad/mCi. In series [3] (120 h interval), the “Osteogenic Cells absorbed dose” value is on record as 0.0720 rad/mCi and the Spleen absorbed dose is listed as 0.0225 rad/mCi. In addition, in series [1], the “excretion pathway (PET imaging)” value is “cleared quickly and cleanly through the urinary tract”. The “Log D” value in series [2] is recorded as −2.08 +/− 0.06.

As to `O=C([O-])CN1CCN(CC(=O)[O-])CC(Cc2ccc(NC(=O)CCCC(=O)NCc3ccc(-c4nncnn4)cc3)cc2)N(CC(=O)[O-])CC1.[64Cu+2]` (centres unmarked) [^64Cu-Tz-NOTA], the “excretion pathway (PET imaging)” value in series [1] is “eliminated somewhat sluggishly through the gastrointestinal pathway”. For the same molecule, the log distribution coefficient (Log D) in series [2] was −2.54±0.1 and −2.54 +/− 0.10.

The record behind these values is patent US11135320B2, “Radioligands for pretargeted pet imaging and methods of their therapeutic use” (priority 2015, dated 2021).
